The record followed here is patent US7202254B2, “Antibacterial compounds: process for their preparation and pharmaceutical compositions containing them” (Dr. Reddy's Laboratories Limited, priority 2002, dated 2007).

In turn, `OCc1cn(-c2ccc(N3CCOCC3)c(F)c2)nn1` [Example 2, [1-(3-Fluoro-4-morpholin-4-yl-phenyl)-1H-[1,2,3]triazol-4-yl]-methanol] registered a melting point of 198 °C. Next, `[N-]=[N+]=NCc1cn(-c2ccc(N3CCOCC3)c(F)c2)nn1` [Example 12, 4-[4-(4-Azidomethyl-[1,2,3]triazol-1-yl)-2-fluorophenyl]-morpholine]: 90 °C; `NCc1cn(-c2cc(F)c(N3CC[S+]([O-])CC3)c(F)c2)nn1` [Example 28, C-{1-[3,5-Difluoro-4-(1-oxo-1lambda*4*-thiomorpholin-4-yl)-phenyl]-1H-[1,2,3]triazol-4-yl}-methylamine]: 190 °C. Under `CC(=O)NCc1cn(-c2cc(F)c(N3CCOCC3)c(F)c2)nn1` [Example 41, N-[1-(3,5-Difluoro-4-morpholin-4-yl-phenyl)-1H-[1,2,3]triazol-4-ylmethyl]-acetamide] stands 218 °C; under `CC(=O)NCc1cn(-c2ccc(N3CCOCC3)c(F)c2)nn1` [Example 42, N-[1-(3-Fluoro-4-morpholin-4-yl-phenyl)-1H-[1,2,3]triazol-4-ylmethyl]-acetamide], 218 °C; under `CC(=O)NCc1cn(-c2cc(F)c(N3CCSCC3)c(F)c2)nn1` [Example 43, N-[1-(3,5-Difluoro-4-thiomorpholin-4-yl-phenyl)-1H-[1,2,3]triazol-4-ylmethyl]-acetamide], 210 °C.

Regarding `CC(=O)NCc1cn(-c2cc(F)c(N3CC[S+]([O-])CC3)c(F)c2)nn1` [Example 44, N-{1-[3,5-Difluoro-4-(1-oxo-1lambda*4*-thiomorpholin-4-yl)-phenyl]-1H-triazol-4-ylmethyl}-acetamide], the melting point turned out to be 203 °C.

The compound `CC(=O)NCc1cn(-c2cc(F)c(N3CCS(=O)(=O)CC3)c(F)c2)nn1` [Example 45, N-{1-[4-(1,1-Dioxo-1lambda*6*-thiomorpholin-4-yl)-3,5-difluoro-phenyl]-1H-[1,2,3]triazol-4-ylmethyl}-acetamide] showed a melting point of 197 °C.

In turn, `CC(=O)NCc1cn(-c2ccc(N3CCSCC3)c(F)c2)nn1` [Example 46, N-[1-(3-Fluoro-4-thiomorpholin-4-yl-phenyl)-1H-[1,2,3]triazol-4-ylmethyl]-acetamide] came in with a melting point of 207 °C. Under `CC(=O)NCc1cn(-c2ccc(N3CC[S+]([O-])CC3)c(F)c2)nn1` [Example 47, N-{1-[3-Fluoro-4-(1-oxo-1lambda*4*-thiomorpholin-4-yl)-phenyl]-H-[1,2,3]triazol-4-ylmethyl}-acetamide] stands 210 °C. Compound `COC(=O)NCc1cn(-c2ccc(N3CC[S+]([O-])CC3)c(F)c2)nn1` [Example 48, {1-[3-Fluoro-4-(1-oxo-1lambda*4*-thiomorpholin-4-yl)-phenyl]-1H-[1,2,3]triazol-4-ylmethyl}-carbamic acid methyl ester] gave a melting point of 218 °C. The compound `CC(=O)NCc1cn(-c2ccc(N3CCS(=O)(=O)CC3)c(F)c2)nn1` [Example 49, N-{1-[4-(1,1-Dioxo-1lambda*6*-thiomorpholin-4-yl)-3-fluoro-phenyl]H-triazol-4-ylmethyl}-acetamide] showed a melting point of 198 °C. Next, `O=CNCc1cn(-c2ccc(N3CC[S+]([O-])CC3)c(F)c2)nn1` [Example 50, N-{1-[3-Fluoro-4-(1-oxo-1lambda*4*-thiomorpholin-4-yl)-phenyl]-1H-[1,2,3]triazol-4-ylmethyl}-formamide]: 182 to 184 °C; `CC(=S)NCc1cn(-c2ccc(N3CC[S+]([O-])CC3)c(F)c2)nn1` [Example 53, N-{1-[3-Fluoro-4-(1-oxo-1lambda*4*-thiomorpholin-4-yl)-phenyl]-1H-[1,2,3]triazol-4-ylmethyl}-thioacetamide]: 245 °C; `COC(=S)NCc1cn(-c2cc(F)c(N3CC[S+]([O-])CC3)c(F)c2)nn1` [Example 57, 1-[3,5-Difluoro-4-(1-oxo-1lambda*4*-thiomorpholin-4-yl)-phenyl]-1H-{[1,2,3]triazol-4-ylmethyl}-thiocarbamic acid O-methyl ester]: 202 °C. Next, `COC(=S)NCc1cn(-c2ccc(N3CCC4(CC3)OCCO4)c(F)c2)nn1` [Example 62, {1-[4-(1,4-Dioxa-8-aza-spiro[4.5]dec-8-yl)-3-fluoro-phenyl]-1H-[1,2,3]triazol-4-ylmethyl}-thiocarbamic acid O-methyl ester]: 135 to 137 °C; `COC(=S)NCc1cn(-c2ccc(N3CCS(=N)CC3)c(F)c2)nn1` [Example 63, {1-[3-Fluoro-4-(1-imino-1lambda*4*-thiomorpholin-4-yl)-phenyl]-1H-[1,2,3]triazol-4-ylmethyl}-thiocarbamic acid O-methyl ester]: 198 °C. Next, `CNC(=S)NCc1cn(-c2cc(F)c(N3CCOCC3)c(F)c2)nn1` [Example 64, 1-[1-(3,5-Difluoro-4-morpholin-4-yl-phenyl)-1H-[1,2,3]triazol-4-ylmethyl]-3-methyl-thiourea]: 181 °C; `CCNC(=S)NCc1cn(-c2ccc(N3CC[S+]([O-])CC3)c(F)c2)nn1` [Example 65, 1-Ethyl-3-{1-[3-fluoro-4-(1-oxo-1lambda*4*-thiomorpholin-4-yl)-phenyl]-1H-[2,3]triazol-4-ylmethyl}-thiourea]: 204 °C; `NNC(=S)NCc1cn(-c2ccc(N3CCSCC3)c(F)c2)nn1` [Example 66, 1-[3-fluoro-4-(4-thiomorpholinyl)phenyl]-1H-1,2,3-triazol-4-ylmethylamino-hydrazinomethanethione]: 174 to 176 °C. In the case of `CSC(=S)NCc1cn(-c2ccc(N3CC[S+]([O-])CC3)c(F)c2)nn1` [Example 68, {1-[3-Fluoro-4-(1-oxo-1lambda*4*-thiomorpholin-4-yl)-phenyl]-1H-[1,2,3]triazol-4-ylmethyl}-dithiocarbamic acid methyl ester], the melting point is 184 °C. On to `O=C(NC(=S)NCc1cn(-c2ccc(N3CCOCC3)c(F)c2)nn1)c1ccccc1` [Example 70, 1-Benzoyl-3-[1-(3-fluoro-4-morpholin-4-yl-phenyl)-1H-[1,2,3]triazol-4-ylmethyl]-thiourea], for which the melting point turned out to be 138 °C.

For the compound `O=C(NCc1cn(-c2ccc(N3CCOCC3)c(F)c2)nn1)c1cnccn1` [Example 71, Pyrazine-2-carboxylic acid [1-(3-fluoro-4-morpholin-4-yl-phenyl)-1H-[1,2,3]triazol-4-ylmethyl]-amide], the melting point turned out to be 215 °C. Under `O=C(NCc1cn(-c2ccc(N3CCSCC3)c(F)c2)nn1)c1cnccn1` [Example 72, N-{1-[3-fluoro-4-(4-thiomorpholinyl)phenyl]-1H-1,2,3-triazol-4-ylmethyl}-pyrazine-2-carboxamide] stands 216 to 218 °C. Next, `CSC(=S)OCc1cn(-c2ccc(N3CCOCC3)c(F)c2)nn1` [Example 73, Dithiocarbonic acid O-[1-(3-fluoro-4-morpholin-4-yl-phenyl)-1H-[1,2,3]triazol-4-ylmethyl]ester S-methyl ester]: 118 °C; `O=C(NCc1cn(-c2ccc(N3CCSCC3)c(F)c2)nn1)c1ccccn1` [Example 75, N-{1-[3-Fluoro-4-(4-thiomorpholinyl)phenyl]-1H-1,2,3-triazol-4-ylmethyl}-pyridine-2-carboxamide]: 190 to 192 °C. `NC(=S)NCc1cn(-c2ccc(N3CCOCC3)c(F)c2)nn1` [Example 76, [1-(3-Fluoro-4-morpholin-4-yl-phenyl)-1H-[1,2,3]triazol-4-ylmethyl]-thiourea] had a melting point of 192 °C. Under `NC(=S)NCc1cn(-c2ccc(N3CC[S+]([O-])CC3)c(F)c2)nn1` [Example 77, {1-[3-Fluoro-4-(1-oxo-1lambda*4*-thiomorpholin-4-yl)-phenyl]-1H-[1,2,3]triazol-4-ylmethyl}-thiourea] stands 228 to 230 °C.

As for `CNC(=S)NCc1cn(-c2ccc(N3CC[S+]([O-])CC3)c(F)c2)nn1` [Example 78, 1-{1–[3-Fluoro-4-(1-oxo-1lambda*4*-thiomorpholin-4-yl)-phenyl]-1H-[1,2,3]triazol-4-ylmethyl}-3-methyl-thiourea], the melting point is 182 to 184 °C. Under `O=C(NCc1cn(-c2ccc(N3CCOCC3)c(F)c2)nn1)C(Cl)Cl` [Example 79, 2,2-Dichloro-N-[1-(3-fluoro-4-morpholin-4-yl-phenyl)-1H-[1,2,3]triazol-4-ylmethyl]-acetamide] stands 190 °C; under `CS(=O)(=O)NCc1cn(-c2ccc(N3CC[S+]([O-])CC3)c(F)c2)nn1` [Example 80, N-{1-[3-Fluoro-4-(1-oxo-1lambda*4*-thiomorpholin-4-yl)-phenyl]-1H-[1,2,3]triazol-4-ylmethyl}-methanesulfonamide], 174 to 176 °C; under `Fc1cc(-n2cc(CNC(=S)c3ccccn3)nn2)ccc1N1CCSCC1` [Example 81, N-{1-[3-fluoro-4-(−4-thiomorpholinyl)phenyl]-1H-1,2,3-triazol-4-ylmethyl}-pyridine-2-thiocarboxamide], 158 to 160 °C. Next, `COC(=S)NCc1cn(-c2ccc(N3CCC(=O)CC3)c(F)c2)nn1` [Example 82, {1-[3-Fluoro-4-(4-oxo-piperidin-1-yl)-phenyl]-1H-[1,2,3]triazol-4-ylmethyl}-thiocarbamic acid O-methyl ester]: 145 to 147 °C; `COC(=S)NCc1cn(-c2ccc(N3CCC(=NO)CC3)c(F)c2)nn1` [Example 83, {1-[3-Fluoro-4-(4-hydroxyimino-piperidin-1-yl)-phenyl]-1H-[1,2,3]triazol-4-ylmethyl}-thiocarbamic acid O-methyl ester]: 141 to 142 °C. `COC(=S)NCc1cn(-c2ccc(N3CCC(=C(C#N)C#N)CC3)c(F)c2)nn1` [Example 84, {1-[4-(4-Dicyanomethylene-piperidin-1-yl)-3-fluoro-phenyl]-1H-[1,2,3]triazol-4-ylmethyl}-thiocarbamic acid O-methyl ester] came in with a melting point of 198 °C.
